Test systems include 786-0; A498; COLO 205; HCC 2998; HCT-15; HOP-62; M14; MOLT-4; Malme-3M; NCI-H23; SF-268; SF-539; SK-MEL-2; TK-10; UACC-257; UACC-62; MDA-N; NCI/ADR-RES; PC-3.
What all share (test): DTP human tumour cell line panel, 48 h

Structures can show the parent of a compound that is named as a salt.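 Dose response: 5 concentrations. Exposure: 48 h. Format: 96-well plates. Endpoint: linear interpolation; highest concentration if not reached. The concentration for 50% growth inhibition is given as GI50.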 Activity calls are given as the source filed them. Cut-off read from the data, not from the text of the source: active = GI50 up to about 1.1 µM and inactive = higher.

A word on the GI50: it is the concentration at which growth is held to half of that of the control. For `Cc1cccc(C(C)C)c1NC(=O)C(=O)CC(=O)c1c(C)[n+]([O-])c2ccccc2[n+]1[O-]`, the GI50 in the experiment on 786-0 was 49.1 µM (inactive); with A498 it was > 100 µM (inactive); in the experiment on COLO 205 it was 33.1 µM (inactive); with HCC 2998, 34.3 µM (inactive); with HCT-15 it was 20.9 µM; in the experiment with HOP-62, > 100 µM (inactive). Also, the GI50 in the experiment with M14 was 27.8 µM (inactive); with MOLT-4, 21.5 µM (inactive); with Malme-3M, 18.7 µM (inactive); in the experiment with NCI-H23 it was 18.8 µM (inactive); with SF-268, 30.1 µM (inactive); with SF-539, 36.9 µM (inactive). Moreover, the GI50 in the experiment on SK-MEL-2 is 29.3 µM (inactive); with TK-10 it was > 100 µM (inactive); in the experiment with UACC-257, 23.3 µM (inactive); with UACC-62, 21.5 µM (inactive).

Regarding `O=C1C(C(O)(C(F)(F)F)C(F)(F)F)CCC1C(O)(C(F)(F)F)C(F)(F)F` (stereo not drawn), the GI50 in the experiment with 786-0 is 3.87 µM (inactive); in the experiment on A498, 0.964 µM (active); in the experiment with COLO 205, 0.0481 µM (active); in the experiment with HCC 2998, 0.323 µM (active); in the experiment with HCT-15 it was 28.3 µM; in the experiment on HOP-62 it was 0.569 µM (active). The GI50 was 8.71 µM (inactive) in the experiment on M14; > 36.7 µM (inactive) in the experiment on MDA-N; 0.341 µM (active) in the experiment with MOLT-4; 1.06 µM (active) in the experiment with Malme-3M; 0.769 µM (active) in the experiment with NCI-H23; 2.33 µM (inactive) with NCI/ADR-RES. The GI50 is 0.176 µM (active) with PC-3; 5.7 µM (inactive) in the experiment on SF-268; 6.82 µM (inactive) with SF-539; 0.522 µM (active) in the experiment with SK-MEL-2; 42.1 µM (inactive) with TK-10; 7.67 µM (inactive) with UACC-257. The GI50 in the experiment with UACC-62 was 1.78 µM (inactive).

On to `N#CC(=N)c1ncn(CCO)c1NC(=O)C(F)(F)F`, for which the GI50 with 786-0 was > 100 µM (inactive); in the experiment on A498 it was > 100 µM (inactive); with COLO 205 it was > 100 µM (inactive); in the experiment on HCC 2998, > 100 µM (inactive); in the experiment on HCT-15, greater than 100 µM; with HOP-62 it was > 100 µM (inactive). Also, the GI50 in the experiment on M14, in the experiment on MDA-N, in the experiment on Malme-3M, in the experiment with NCI-H23, with NCI/ADR-RES and in the experiment with PC-3 was > 100 µM (inactive) in each case. The GI50 in the experiment on SF-268, in the experiment on SF-539, in the experiment on SK-MEL-2, in the experiment on TK-10, with UACC-257 and in the experiment with UACC-62 was > 100 µM (inactive) in each case.

`C=C(c1ccccc1N)[C@@]1(O)C[C@H](/C(=C\C)CO)C[C@@H]1NCc1ccccc1`: the GI50 in the experiment with 786-0 was 20.6 µM (inactive); with A498 it was 82.6 µM (inactive); with COLO 205, 16.7 µM (inactive); in the experiment on HCC 2998, 15.7 µM (inactive); with HCT-15 it was 29 µM; in the experiment on HOP-62 it was 32.7 µM (inactive). The GI50 in the experiment on M14 is 15.2 µM (inactive); in the experiment with MOLT-4, 18.2 µM (inactive); in the experiment on Malme-3M, 13.4 µM (inactive); in the experiment on NCI-H23, 29.9 µM (inactive); with SF-268 it was 30.8 µM (inactive); in the experiment on SF-539, 16.3 µM (inactive). The GI50 in the experiment on SK-MEL-2 was 22.2 µM (inactive); in the experiment on TK-10, 20.8 µM (inactive); with UACC-257, 17.9 µM (inactive); in the experiment on UACC-62, 28.6 µM (inactive).

For `O=c1[nH]c(=O)n(COCc2ccccc2)c2ccc(Br)cc12`, the GI50 in the experiment with 786-0 is > 100 µM (inactive); in the experiment on A498, > 100 µM (inactive); in the experiment with COLO 205, > 100 µM (inactive); with HCT-15 it was 71.4 µM; in the experiment on M14, > 100 µM (inactive); in the experiment with MDA-N it was > 100 µM (inactive). For the same compound, the GI50 in the experiment on MOLT-4 is > 100 µM (inactive); with NCI/ADR-RES, 37 µM (inactive); in the experiment on SF-539 it was > 100 µM (inactive); in the experiment on SK-MEL-2 it was > 100 µM (inactive); in the experiment on TK-10 it was > 100 µM (inactive); with UACC-257 it was > 100 µM (inactive). For the same compound, the GI50 in the experiment with UACC-62 was > 100 µM (inactive).

Take `NC1=C2C(Br)=CN([C@@H]3O[C@H](CO)[C@@H](O)[C@@H]3O)C2C(=O)N=N1` (stereo partly drawn): the GI50 was 12.4 µM (inactive) in the experiment on 786-0; 40.4 µM (inactive) in the experiment on A498; 7.93 µM (inactive) in the experiment on COLO 205; 5.02 µM (inactive) in the experiment on HCC 2998; 1.25 µM with HCT-15; 15.1 µM (inactive) with HOP-62. Further, the GI50 with M14 is 1.27 µM (inactive); in the experiment with MOLT-4 it was 0.395 µM (active); with Malme-3M, 6.89 µM (inactive); in the experiment with NCI-H23 it was 5.58 µM (inactive); with SF-268, 9.51 µM (inactive); in the experiment with SF-539, 5.32 µM (inactive). In addition, the GI50 in the experiment with SK-MEL-2 is 14.8 µM (inactive); with TK-10, 15.4 µM (inactive); in the experiment with UACC-257 it was 22.4 µM (inactive); in the experiment on UACC-62, 16.6 µM (inactive).

As for `COc1ccc(C=O)c(N(C)C(=O)C(C)(C)C)c1`, the GI50 was > 100 µM (inactive) in the experiment with 786-0; > 100 µM (inactive) with A498; > 100 µM (inactive) in the experiment with COLO 205; > 100 µM (inactive) in the experiment on HCC 2998; greater than 100 µM in the experiment on HCT-15; > 100 µM (inactive) with HOP-62. Moreover, the GI50 in the experiment on M14, in the experiment on MOLT-4, in the experiment on Malme-3M, in the experiment on NCI-H23, with SF-268 and in the experiment on SF-539 was > 100 µM (inactive) in each case. Moreover, the GI50 in the experiment with SK-MEL-2, with TK-10, with UACC-257 and in the experiment with UACC-62 was > 100 µM (inactive) each time.

Consider `Cc1noc2cccc(O)c12`, for which the GI50 with 786-0 is > 100 µM (inactive); with A498, > 100 µM (inactive); in the experiment with COLO 205, > 100 µM (inactive); in the experiment with HCC 2998, > 100 µM (inactive); in the experiment with HCT-15 it was greater than 100 µM; in the experiment with HOP-62, > 100 µM (inactive). Further, the GI50 in the experiment on M14, in the experiment with MOLT-4, in the experiment with Malme-3M, in the experiment on NCI-H23, with SF-268 and in the experiment on SF-539 was > 100 µM (inactive) in each case. Moreover, the GI50 in the experiment with SK-MEL-2, in the experiment on TK-10, with UACC-257 and with UACC-62 was > 100 µM (inactive) in each case.

Consider `CC(/C=C1\CCC(CN(C)C)C1=O)c1cccc(Br)c1` (stereo not drawn), for which the GI50 was 3.41 µM (inactive) in the experiment on 786-0; 26.5 µM (inactive) in the experiment on A498; 17.9 µM (inactive) with COLO 205; 20.4 µM (inactive) with HCC 2998; 14.9 µM with HCT-15; 22.7 µM (inactive) with HOP-62. The GI50 with M14 was 14.9 µM (inactive); with MOLT-4, 3.85 µM (inactive); with Malme-3M it was 17.8 µM (inactive); in the experiment with NCI-H23, 19.5 µM (inactive); in the experiment on SF-268, 21.7 µM (inactive); with SF-539, 18 µM (inactive). The GI50 is 16.7 µM (inactive) in the experiment with SK-MEL-2, 15.7 µM (inactive) with TK-10, 17.3 µM (inactive) in the experiment with UACC-257 and 17.3 µM (inactive) in the experiment with UACC-62.

As for `C/C(CC(=O)Nc1cccc(C)c1C)=N\NC(N)=S`, the GI50 was > 100 µM (inactive) in the experiment with 786-0; > 100 µM (inactive) in the experiment with A498; > 100 µM (inactive) with COLO 205; > 100 µM (inactive) in the experiment on HCC 2998; 41.8 µM in the experiment with HCT-15; > 100 µM (inactive) with HOP-62. The GI50 in the experiment with M14, in the experiment on MOLT-4, with Malme-3M, in the experiment with NCI-H23, with SF-268 and in the experiment with SF-539 was > 100 µM (inactive) each time. In addition, the GI50 with SK-MEL-2, in the experiment on TK-10, in the experiment on UACC-257 and in the experiment with UACC-62 was > 100 µM (inactive) in each case.

Turning to `CN(C)CCOC(c1ccccc1)c1ccccc1` [DIPHENHYDRAMINE HYDROCHLORIDE], the GI50 with 786-0 is > 100 µM (inactive); with COLO 205, > 100 µM (inactive); in the experiment with HCC 2998, > 100 µM (inactive); in the experiment on HCT-15, greater than 100 µM; in the experiment with HOP-62, > 100 µM (inactive); in the experiment on M14 it was 51.2 µM (inactive). Also, the GI50 with MDA-N, with MOLT-4, with Malme-3M, in the experiment with NCI-H23, with NCI/ADR-RES and with PC-3 was > 100 µM (inactive) each time. Moreover, the GI50 in the experiment on SK-MEL-2 was 72.4 µM (inactive); in the experiment with TK-10, > 100 µM (inactive); in the experiment with UACC-257, > 100 µM (inactive).

On to `COc1nc(=O)cc(N)n1C1OC(CO)C(O)C1O` (stereo not drawn), for which the GI50 with 786-0 is > 100 µM (inactive); with A498, > 100 µM (inactive); with COLO 205, > 100 µM (inactive); in the experiment on HCC 2998, > 100 µM (inactive); in the experiment with HCT-15, greater than 100 µM; in the experiment with HOP-62, > 100 µM (inactive). Moreover, the GI50 in the experiment with M14, in the experiment with MOLT-4, in the experiment with Malme-3M, in the experiment with NCI-H23, with SF-268 and with SF-539 was > 100 µM (inactive) throughout. For the same compound, the GI50 with SK-MEL-2, in the experiment with TK-10, in the experiment with UACC-257 and in the experiment on UACC-62 was > 100 µM (inactive) throughout.

The values are drawn from ChEMBL document CHEMBL1201862, “PubChem BioAssay data set” (2004).
